From patent US8466259B2, “Adjuvants” (National Health Research Institutes, priority 2007, dated 2013) come the findings set out here.

Assay [1] relates to bone marrow-derived dendritic cells. Briefly: lipo-Nter stimulation of BM-DCs, cytokine ELISA (Example 4). Format: cell-based, mouse. The following applies: lipo-Nter 100 nM. The procedure:
BM-DCs were harvested as previously described (Lutz et al., 1999). Briefly, femurs and tibiae of 6-8 week old female mice were removed, and the bone marrow cells were dispersed by vigorous pipetting. After removing red blood cells with lysis buffer, the isolated bone marrow cells were resuspended to a density of 2−5×10^5/ml cells with RPMI-10: RPMI-1640 (GIBCO BRL, Grand Island, N.Y.) supplemented with 10% P/S, L-glutamine (2 mM, Sigma), 2-mercaptoethanol (50 μM, Sigma), and 10% heat-inactivated FBS. On days 0, 3, and 6, bone marrow cells were added to Petri dishes containing 200 U/mL (20 ng/ml) of recombinant mouse granulocyte macrophage colony stimulating factor (MoGM-CSF, Peprotech, Rocky Hill, N.J.) in RPMI-10. At day 6, either LPS (0.01 μg/ml), lipo-Nter (100 nM) was added. Generally, immature dendritic cells made up 70% of the total cell population. The production of cytokines by BM-DCs was determined using ELISA. Briefly, 100 μL of anti-cytokine (10 μg/ml of IL-12p40, TNF-α) antibodies (R&D system Inc. Minneapolis, Minn.) were coated onto 96-well microtiter plates with 0.1 M carbonate buffer, pH 9.6, following overnight incubation at 4° C. […] The plates were read at 450 nm using an ELISA plate reader (Molecular Devices, CA). The production levels of the cytokines were calculated by subtracting the values obtained for non-stimulated groups.
A general note: ELISA stands for enzyme-linked immunosorbent assay.

For assay [2], the target named is T1, TLR2 (Homo sapiens, UniProt O60603).
T1 construct: FLAG; host or cells: HEK293
T1 sequence (O60603 21-784): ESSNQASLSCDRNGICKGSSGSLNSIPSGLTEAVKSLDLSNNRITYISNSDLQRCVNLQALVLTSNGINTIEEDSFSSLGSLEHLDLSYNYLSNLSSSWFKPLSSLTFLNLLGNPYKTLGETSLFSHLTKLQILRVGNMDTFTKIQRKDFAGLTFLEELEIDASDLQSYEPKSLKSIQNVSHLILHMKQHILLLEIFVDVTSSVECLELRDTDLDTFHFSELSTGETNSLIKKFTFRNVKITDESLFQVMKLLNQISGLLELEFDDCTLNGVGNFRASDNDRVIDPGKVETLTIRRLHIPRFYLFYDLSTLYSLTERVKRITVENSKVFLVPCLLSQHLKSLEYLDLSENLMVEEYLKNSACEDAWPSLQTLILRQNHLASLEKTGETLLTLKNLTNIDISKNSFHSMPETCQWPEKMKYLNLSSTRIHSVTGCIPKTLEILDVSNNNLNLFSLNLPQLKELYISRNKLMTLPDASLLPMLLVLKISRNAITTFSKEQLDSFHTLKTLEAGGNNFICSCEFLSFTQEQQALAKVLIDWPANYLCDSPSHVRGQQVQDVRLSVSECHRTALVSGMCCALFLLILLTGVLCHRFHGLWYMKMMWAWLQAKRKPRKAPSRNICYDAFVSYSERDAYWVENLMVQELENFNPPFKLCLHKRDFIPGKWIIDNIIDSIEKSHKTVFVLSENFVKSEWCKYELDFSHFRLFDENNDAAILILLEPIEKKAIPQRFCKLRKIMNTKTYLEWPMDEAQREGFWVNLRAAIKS
The assay can be described thus: NF-kB luciferase reporter assay in TLR2-transfected HEK293 cells. Format: cell-based. How it is done:
HEK293 cells were plated onto 24-well plates (2×10^5 cells/well) and cotransfected with 0.1 μg of pFLAG-TLR2, 0.01 μg of pNF-kB-luc, and 0.01 μg of the pRL-TK internal control plasmid (Promega, Madison, Wis.) using lipofectamine 2000 (Invitrogen, Carlsbad, Calif.). After 24 h, the transfected cells were stimulated with various synthetic lipopeptide or recombinant proteins for 24 h. The cells were lysed so that the luciferase activity could be measured using a dual-luciferase reporter assay system (Promega Co., Madison, Wis.). Firefly-luciferase activities were related to Renilla-luciferase activities for the purposes of normalization. Both firefly and Renilla luciferase activities were monitored using a Berthold Orion II luminometer (Pforzheim, Germany).
In general terms: Reporter assays use an easily measured gene product as a stand-in for the process of interest.

In assay [3] the test system is rE7m. The assay can be described thus: Anti-E7m IgG ELISA after immunization of mice with rE7m with or without lipo-Nter (Example 5). Format: in vivo, mouse. The following applies: subcutaneous, combined with 20 μg rE7m, two immunizations at two-week intervals. The procedure: Five mice (6-8 weeks old) were immunized subcutaneously with 20 μg of rE7m with or without lipo-Nter. The mice were given two immunizations at two-week intervals. Blood was collected from each mouse at different time points as indicated. Sera were prepared and stored at −80° C. until use. The level of anti-E7m IgG in the serum samples was determined by titrating the samples in 96-well plates coated with purified rE7m. Bound IgG was detected with horseradish peroxidase-conjugated goat anti-mouse IgG Fc. After the addition of TMB, the absorbance was measured with an ELISA reader at 450 nm.

In assay [4] the test system is TC-1 cells (expressed HPVE7 cells). The assay can be described thus: TC-1 tumor growth inhibition, E7-derived peptide RAH with Pam3 or lipo-Nter (Example 7). Format: in vivo, mouse. The following applies: mice with TC-1 tumors, immunized once subcutaneously at day 7, combined with 20 μg E7-derived peptide RAH. The procedure:
Six mice (6-8 weeks old) were inoculated with 2×10^5 TC-1 cells (expressed HPVE7 cells) at day 0. After 7 days, mice were immunized once subcutaneously with 20 μg of E7-derived peptide in the presence of tripamitoylated peptide Pam3 or lipo-Nter. The tumor size was monitored every 2-3 days until tumor volumes higher than 3000 mm^3. The tumor volumes were calculated based on the formula length×width×width/2.

For assay [5] the test system is unchanged. The assay can be described thus: TC-1 tumor growth inhibition, rE7m with or without lipo-Nter (Example 6). Format: in vivo, mouse. The following applies: mice with TC-1 tumors, immunized once subcutaneously at day 7, combined with 20 μg rE7m. How it is done: In this example, assays were conducted to examiner whether the lipo-Nter combined with rE7m can increase the tumor growth inhibition ability. Six mice (6-8 weeks old) were inoculated with 2×10^5 TC-1 cells (expressed HPVE7 cells) at day 0. After 7 days, mice were immunized once subcutaneously with 20 μg of rE7m with or without lipo-Nter. The tumor size was monitored every 2-3 days until tumor volumes higher than 3000 mm^3. The tumor volumes were calculated based on the formula length×width×width/2.

In assay [6] the test system is BM-DCs. The assay can be described thus: Real-time quantitative PCR of cytokine/chemokine gene expression in BM-DCs. The class given is cell-based, mouse. The following applies: 100 nM, 2 or 4 hours. The procedure:
The BM-DCs were purified using the Dynabeads® Mouse DC Enrichment Kit (Invitrogen Dynal AS, Oslo, Norway) according to the manufacturer's instructions to 60 90%. The purified BM-DCs were stimulated using medium alone, or with 100 nM of Pam3, BPPcysPEG or rlipo-D1E3, at 37° C. for 2 or 4 hours. Total RNA was extracted from the isolated cells using the RNeasy mini kit (Qiagen, Valencia, Calif.) following the manufacturer's instructions. RNA (0.5-1 μg) was reverse-transcribed to cDNA using an oligo-dT primer in a 20 μl volume and SuperScript III RT (Invitrogen, Carlsbad, Calif.). The mouse Universal Probe Library (UPL) set (Roche, Mannheim, Germany) was used to perform the real-time qPCR assay for gene expression in isolated cell populations (Liu et al. (2007) J Leukoc Biol 82, 354-360.).
The reaction mixture contained 5 ng cDNA, 0.2 μM primers, and LightCycler 480 Probe Master (Roche), and the reagents were reacted in a LightCycler 480 system (Roche). All qPCRs were carried out using an initial denaturation step at 95° C. for 10 min, followed by 45 cycles of 95° C. for 10 s, 60° C. for 20 s, and 72° C. for 2 s. Target gene expression was normalization to HPRT gene expression. The relative gene expression levels were calculated by comparing the expression levels after treatment with various stimulators to those obtained using medium alone. […]

Assay [7] relates to p38, ERK1/2 and JNK1/2 in BM-DCs. Briefly: Western blot analysis of p38, ERK1/2, JNK1/2 phosphorylation in BM-DCs. Format: cell-based, mouse. To be noted: 100 nM. How it is done: The BM-DCs were grown in DMEM or RPMI medium without FBS for 16-18 h and then stimulated with 100 nM of the indicated lipopeptides or lipoprotein for 10, 20, 40, 60, 90, or 120 minutes at 37° C. These treated BM-DCs were then lysed in 25 mM HEPES, 150 mM NaCl, 1 mM EDTA, 1 mM EGTA, 10% glycerol, 1% Triton X-100, 10 mM sodium pyrophosphate, 20 mM b-glycerophosphate, Na3VO4, 10 mM NaF, […], and 1 mM PMSF. The concentration of the protein lysates was determined using the BCA protein assay kit (Pierce, Rockford, Ill.). Fifty microgram of lysates were electrophoresed per lane of a 10% SDS-PAGE gel. After the resolved lysates in the gel were transferred to a PVDF membrane, the membranes were blocked with 5% milk and 0.05% Tween-20. The membranes were incubated with antibodies against p38, pp38, pERK1/2, or pJNK1/2 in 5% w/v BSA, 1×PBS and 0.1% Tween-20. Anti-p38 antibody was used as a control for the protein loading level in each lane. The membrane was developed using the LumiGLO® Chemiluminescent Substrate system (Millipore, Billerica, Mass.). The total p38 level was used for normalization, and the induction of pp38 was determined using image analysis software (Image J1.41, NIH, Bethesda, Md.). Relative phosphorylation was calculated as the (density of pp38/density of p38)×100.

Turning to “N-acyl-S-diacylglyceryl-CSQEAK [lipo-Nter]”, in assay [1], the “secretion of TNF-α and IL-12p40” value is “stimulated bone marrow-derived dendritic cells to secrete TNF-α and IL-12p40”. Also, the “activation of NF-κB signaling through TLR2” value in assay [2] (purified lipo-Nter) is “activate NF-κB signaling through TLR2”. Further, the “anti-E7 antibody (anti-E7m IgG in serum)” value in assay [3] was “enhanced anti-E7 antibody”. In assay [4], the “tumor growth inhibition (tumor volume)” value is reported as “could inhibit tumor growth”. Moreover, in assay [5], the “anti-tumor activity (tumor volume)” value is given as “anti-tumor activity stronger than that of rE7m alone”.

On to “S-[2,3-bispalmitoyloxy-[2R]-propyl-[R]-cysteinyl-amido polyethyleneglycol [BPPcysPEG]”, for which, in assay [6] (compared among Pam3, BPPcysPEG and rlipo-D1E3), the “IL-10, TGFβ and CXCL1 expression levels” value is given as “similar”. The “expression levels of IL-13” value in assay [6] (compared to Pam3) is reported as “higher expression levels”. Also, the NF-κB signaling activities result in assay [2] (at 0.1 or 1 nM concentration, compared among Pam3, rlipo-D1E3 and BPPcysPEG) was “highest NF-κB signaling activities”. Moreover, in assay [2] (range from 1 μM to 100 nM), the “dose response of TLR2-dependent NF-κB activation” value is “stronger activation of TLR2”. Besides, the “time after which phosphorylation dropped down to basal levels” value in assay [7] was 60 min. In addition, in assay [7] (compared with Pam3 and rlipo-D1E3), the “level of the phosphorylation of p38, ERK1/2, JNK1/2” value is on record as “higher level”. Further, the “time of highest induced level of phosphorylation of p38, ERK1/2 and JNK1/2” value in assay [7] (measured 0-120 min) came out at 10 min.
